One experiment has as its system A549. Kind of experiment: Cytotoxicity against human A549 cells at 20 ug/mL. Format: functional, cell-based.
In another experiment the test system is HL-60. The experiment in a line: Cytotoxicity against human HL60 cells at 20 ug/mL. Format: functional, cell-based.

The values that follow come from ChEMBL document CHEMBL1157950, “Sarcophytonolides E-H, cembranolides from the Hainan soft coral Sarcophyton latum” (J Nat Prod, 2006).

Calls of active or inactive are those of the source. No cut-off for these calls is given here.

As to `C/C1=C\[C@H](O)CC2=C[C@@H](OC2=O)[C@H](C(C)C)CC/C(C)=C/CC1`, the outcome in the experiment on A549 and in the experiment with HL-60 was inactive.
On to `CC(=O)O[C@H]1C/C(C)=C/CC/C(C)=C/[C@H](O)CC2=C[C@H](OC2=O)[C@@H]1C(C)C`, for which the result with A549 and in the experiment on HL-60 was inactive.
`C/C1=C\[C@@H](O)CC2=C[C@@H](OC2=O)[C@H](C(C)C)CC/C(C)=C/CC1`: the result in the experiment on A549 and with HL-60 was inactive.
Regarding `C/C1=C\CC[C@H](C)C[C@H](O)CC2=C[C@@H](OC2=O)[C@H](C(C)C)CC1`, the outcome in the experiment on A549 and in the experiment on HL-60 was inactive.
